Measurements reported in ChEMBL document CHEMBL1159241, “Dihydrolicoisoflavone, a new isoflavanone from Swartzia polyphylla” (J Nat Prod, 1995).

Assay: Inhibition of protein kinase C

`COc1ccc(-c2coc3cc(O)cc(O)c3c2=O)cc1` [BIOCHANIN] gave an IC50 of less than 50 µg/mL.
